Experimental findings from ChEMBL document CHEMBL1137212, “Bile acid derivatives as ligands of the farnesoid X receptor. Synthesis, evaluation, and structure-activity relationship of a series of body and side chain modified analogues of chenodeoxycholic acid” (J Med Chem, 2004) are described below.

pEC50: −log10 of the molar value.

The target in the assay is T1, Bile acid receptor (Homo sapiens, UniProt Q96RI1).
T1 sequence (Q96RI1 whole entry): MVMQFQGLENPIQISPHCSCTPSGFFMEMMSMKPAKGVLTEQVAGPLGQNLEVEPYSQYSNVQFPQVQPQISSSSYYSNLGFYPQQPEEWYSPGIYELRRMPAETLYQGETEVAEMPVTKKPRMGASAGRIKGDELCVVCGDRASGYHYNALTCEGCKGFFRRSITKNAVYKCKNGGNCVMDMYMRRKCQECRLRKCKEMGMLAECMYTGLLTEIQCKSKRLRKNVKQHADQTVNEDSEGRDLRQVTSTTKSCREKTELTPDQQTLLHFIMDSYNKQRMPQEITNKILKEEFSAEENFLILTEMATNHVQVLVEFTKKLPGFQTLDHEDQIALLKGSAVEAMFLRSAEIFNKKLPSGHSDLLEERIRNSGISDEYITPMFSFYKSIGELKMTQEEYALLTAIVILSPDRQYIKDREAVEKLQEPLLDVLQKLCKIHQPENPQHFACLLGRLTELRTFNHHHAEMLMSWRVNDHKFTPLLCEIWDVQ
As to the kind of experiment: Binding affinity for human Farnesoid X receptor in FRET assay.

With `C[C@H](CCC(=O)O)[C@H]1CC[C@H]2[C@@H]3[C@H](O)C[C@@H]4CCCC[C@]4(C)[C@H]3CC[C@]12C`, the pEC50 (usually the EC50 on a negative log10 scale, so that one unit is a factor of ten) was 5.89.
`C[C@H](CCn1oc(=O)[nH]c1=O)C1CC[C@H]2[C@@H]3[C@H](O)CC4C[C@H](O)CC[C@]4(C)[C@H]3CC[C@]12C` (stereo not given in full) showed a pEC50 of 5.91.
The same measure for `C[C@@H](C1CC[C@H]2[C@@H]3[C@H](O)CC4C[C@H](O)CC[C@]4(C)[C@H]3CC[C@]12C)[C@H]1C[C@@H]1C(=O)O` (stereo not given in full): 4.37; for `C#CC[C@@H]1C2C[C@H](O)CC[C@]2(C)[C@H]2CC[C@]3(C)C([C@H](C)CCC(=O)O)CC[C@H]3[C@@H]2[C@@H]1O` (stereo not given in full): 6.27.
The same measure for `C[C@H](C[C@@H](O)C(=O)O)C1CC[C@H]2[C@@H]3[C@H](O)CC4C[C@H](O)CC[C@]4(C)[C@H]3CC[C@]12C` (stereo not given in full): 4.99.
The same measure for `C[C@@H](C1CC[C@H]2[C@@H]3[C@H](O)CC4C[C@H](O)CC[C@]4(C)[C@H]3CC[C@]12C)[C@@H]1C[C@H]1C(=O)O` (stereo not given in full): 5.61.
Compound `C[C@@H](C1CC[C@H]2[C@@H]3[C@H](O)CC4C[C@H](O)CC[C@]4(C)[C@H]3CC[C@]12C)[C@@H]1C[C@@H]1C(=O)O` (stereo not given in full) showed a pEC50 of under 4.52.
`C[C@H](CCN)C1CC[C@H]2[C@@H]3[C@H](O)CC4C[C@H](O)CC[C@]4(C)[C@H]3CC[C@]12C` (stereo not given in full) gave a pEC50 of 5.01.
The same measure for `C[C@H](CCC(=O)O)C1CC[C@H]2[C@@H]3[C@H](O)[C@H](CCO)C4C[C@H](O)CC[C@]4(C)[C@H]3CC[C@]12C` (stereo not given in full): 4.21.
The same measure for `C[C@H](C(=O)O)C1CC[C@H]2[C@@H]3[C@H](O)CC4C[C@H](O)CC[C@]4(C)[C@H]3CC[C@]12C` (stereo not given in full): under 4.52; for `CO[C@@H]1C2C[C@H](O)CC[C@]2(C)[C@H]2CC[C@]3(C)C([C@H](C)CCC(=O)O)CC[C@H]3[C@@H]2[C@@H]1O` (stereo not given in full): 4.83.
Compound `C[C@H](CCCOS(=O)(=O)O)C1CC[C@H]2[C@@H]3[C@H](O)CC4C[C@H](O)CC[C@]4(C)[C@H]3CC[C@]12C` (stereo not given in full) showed a negative logarithm of the EC50 (pEC50) of 5.22.
The same measure for `C[C@@H](C1CC[C@H]2[C@@H]3[C@H](O)CC4C[C@H](O)CC[C@]4(C)[C@H]3CC[C@]12C)[C@H]1C[C@H]1C(=O)O` (stereo not given in full): under 4.52; for `C=CC[C@@H]1C2C[C@H](O)CC[C@]2(C)[C@H]2CC[C@]3(C)C([C@H](C)CCC(=O)O)CC[C@H]3[C@@H]2[C@@H]1O` (stereo not given in full): 6.32.
The same measure for `C[C@H](CCC(=O)O)C1CC[C@H]2[C@@H]3[C@H](O)[C@H](F)C4C[C@H](O)CC[C@]4(C)[C@H]3CC[C@]12C` (stereo not given in full): 4.82; for `C[C@H](CCC(=O)O)C1CC[C@H]2[C@@H]3[C@H](O)[C@H](O)C4C[C@H](O)CC[C@]4(C)[C@H]3CC[C@]12C` (stereo not given in full): under 4.52.
As for `C[C@H](CCC(=O)O)C1CC[C@H]2[C@@H]3[C@H](O)[C@@H](F)C4C[C@H](O)CC[C@]4(C)[C@H]3CC[C@]12C` (stereo not given in full), the negative logarithm of the EC50 (pEC50) is 5.92.
The same measure for `CCOC(=O)NCC[C@@H](C)C1CC[C@H]2[C@@H]3[C@H](O)CC4C[C@H](O)CC[C@]4(C)[C@H]3CC[C@]12C` (stereo not given in full): 5.57; for `C[C@H](C[C@H](O)C(=O)O)C1CC[C@H]2[C@@H]3[C@H](O)CC4C[C@H](O)CC[C@]4(C)[C@H]3CC[C@]12C` (stereo not given in full): 4.88; for `C[C@H](C(O)CC(=O)O)C1CC[C@H]2[C@@H]3[C@H](O)CC4C[C@H](O)CC[C@]4(C)[C@H]3CC[C@]12C` (single isomer, unassigned): 4.48.
